Test results published in article PMC12610503, “The Molecular Mechanism of PDE1 Regulation” (Cells, 2025).
Entries after “also recorded” stand apart in the source; their conditions may differ. Each block holds one molecule with its values, some of them ahead of it. Ends that are not written are not given here.

Legend:
[1] = system: PDE1/4 chimera (PDE1B regulatory domain fused to the PDE4D catalytic domain); test: PDE4 inhibitor inhibition of the PDE1/4 chimera (SPA); format: biochemical, human; details: [3H]-cAMP; for Inhibition of PDE1/4 chimera activity (in words) / Rolipram potency on PDE1/4 chimera relative to PDE4D catalytic domain (in words) / Rolipram affinity/potency boost on calcium/calmodulin-activated PDE1/4 chimera (in words): pH 7.2, 1 h, room temperature; for Rolipram potency on PDE1/4 chimera relative to PDE4D catalytic domain (in words): IC50, 3–5 independent experiments, without calcium/calmodulin activation; for Rolipram affinity/potency boost on calcium/calmodulin-activated PDE1/4 chimera (in words): chimera activated by calcium/calmodulin
Description: (§1) Human PDE1B1 (Refseq: NM_000924.4) and its N-terminal deletion constructs were cloned into BamH1 and Xho1 sites of pcDNA3.1(+) using PCR. The stated boundary and amino acid positions for mutants and deletion constructs are based on the PDE1B1 isoform (Refseq: NP_000915). For all N-terminal constructs, a start codon was introduced upstream of the indicated boundary, resulting in a methionine preceding the amino acid specified by the N-terminal boundaries. Point mutations and internal deletions were generated using the QuickChange^TM site-directed mutagenesis method, as previously described. The PDE1B-PDE4D chimera was generated by inserting the human PDE4D catalytic domain with a PCR-introduced N-terminal BspE1 site into a pcDNA3.1-PDE1B (82-end) construct using an internal BspE1 site at the junction of the regulatory and catalytic domain and an Xho1 site downstream of the stop codon. All constructs were validated through sequencing. Maps and sequences are available upon request. Alignments were generated using Geneious Prime (v 2024.0.7). Amino acids are colored according to the RasMol color scheme, and similarities are indicated according to the BLOSUM substitution matrix.
Plasmids were transiently transfected into HEK293 cells using Lipofectamine 2000 (Thermo Fisher, Waltham, MA, USA) according to the manufacturer’s instructions. For each well of a 6-well plate, 5 µg plasmid and 10 µL Lipofectamine 2000 were used.
Next, 48 h after transfection, cells were washed once with ice-cold PBS, scraped off into 2 mL PBS, and pelleted via centrifugation at 700× g for 5 min at 4 °C. The resulting cell pellet was frozen. Later, the pellet was thawed and resuspended in 0.5 mL of lysis buffer 50 mM Tris-HCL (pH 8.0) (Sigma-Aldrich, T3253, St. Louis, MO, USA), 1 mM MgCl2, and Complete ULTRA protease inhibitor cocktail (Roche, 05892970001, Basel, Switzerland). The lysate was then centrifuged at 20.000× g for 10 min at 4 °C to remove nuclei and membranes. Then, 0.05% Tween20 (Sigma-Aldrich, P2287) (final concentration) was added to the supernatant containing the cytosolic PDE1 before it was aliquoted and snap frozen.
PDE activity was measured using a scintillation proximity assay (SPA)-based method, similar to that previously described. Briefly, assays were conducted in 96-well plates using a buffer containing 40 mM Hepes (pH 7.2), 140 mM KCl, and 1.5 mM MgCl2. In each well, 0.005–0.05 µL PDE lysate was mixed with or without final concentrations of 50 µM CaCl2 and 50 nM calmodulin (Sigma-Aldrich, P1431) in a volume of 55 µL, and allowed to stand for 5 min at room temperature. Lysate amounts were adjusted to ensure that less than 30% of the tritiated substrate was hydrolyzed. Next, 10 µL tritiated cyclic nucleotide substrate ([3H]-cGMP for PDE1 and [3H]-cAMP for PDE4 and the PDE1/4 chimera) was added, and the reaction was allowed to proceed for 1 h at room temperature before 15 µL of 8 mg/mL phosphodiesterase SPA beads (Perkin Elmer, RPNQ0150, Shelton, CT, USA) was added. After another hour at room temperature to allow binding of the reaction products to the beads, the plates were counted for 2 min using a liquid scintillation counter (Wallac Trilux, Turku, Finland). […] To avoid overestimating inhibition, PEP1-sol was also tested by adding it after reaction termination (i.e., after SPA bead addition) in concentration–response experiments, and pre-addition inhibition minus post-addition (apparent) inhibition at each concentration was used for IC50 calculations.
To test whether the regulatory domains are functionally transferable, we generated and expressed a PDE1/4 chimera with the regulatory domain from PDE1B fused to the catalytic domain from PDE4D (Figure S1).

[2] = system: PDE4 UCR2-containing isoforms; details: cited from earlier work
Description: For PDE4, the longer isoforms that contain the N-terminal upstream conserved regions (UCR1 and UCR2) are activated by phosphorylation via the cAMP-activated protein kinase A (PKA), providing feedback regulation. […] To test whether the regulatory domains are functionally transferable, we generated and expressed a PDE1/4 chimera with the regulatory domain from PDE1B fused to the catalytic domain from PDE4D (Figure S1). […] Rolipram is a selective PDE4 inhibitor with higher potency towards PD ...

[3] = target: T1, PDE1B catalytic domain (PDE1B-cata) (Homo sapiens, UniProt Q01064); test: Inhibition of PDE1B-cata enzyme activity by inhibitory domain peptides added in trans (SPA); format: biochemical; details: [3H]-cGMP, pH 7.2, 1 h, room temperature, post-addition (apparent) inhibition subtracted, average ± SEM from 3 independent experiments
T1 construct: compared to the PDE1B catalytic domain (PDE1B-cata; 146–536); added initiator methionine (single Met before residue 146); made in house; host or cells: HEK293 cells, transiently transfected with pcDNA3.1(+) construct; cleared cytosolic lysate used, not purified
T1 sequence (Q01064 146-536): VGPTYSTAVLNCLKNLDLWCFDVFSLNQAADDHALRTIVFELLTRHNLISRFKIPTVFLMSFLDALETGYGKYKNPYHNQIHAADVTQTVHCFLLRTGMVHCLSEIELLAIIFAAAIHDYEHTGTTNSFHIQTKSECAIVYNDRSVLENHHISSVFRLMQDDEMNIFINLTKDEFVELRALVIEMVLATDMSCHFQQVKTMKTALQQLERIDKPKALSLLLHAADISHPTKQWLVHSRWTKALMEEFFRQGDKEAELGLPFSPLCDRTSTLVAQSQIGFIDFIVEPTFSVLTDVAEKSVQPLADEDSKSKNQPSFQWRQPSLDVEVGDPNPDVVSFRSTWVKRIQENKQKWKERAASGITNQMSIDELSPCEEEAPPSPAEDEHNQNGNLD
Description: as §1, with “Alignments were generated using Geneious Prime (v 2024.0.7). Amino acids are colored according to the RasMol color scheme, and similarities are indicated according to the BLOSUM substitution matrix.” left out
(§2) PDE activity was measured using a scintillation proximity assay (SPA)-based method, similar to that previously described. […] After another hour at room temperature to allow binding of the reaction products to the beads, the plates were counted for 2 min using a liquid scintillation counter (Wallac Trilux, Turku, Finland). […] Since absorbance was low, this had only a minor impact on IC50 estimates. […]

[4] = Solubility of inhibitory domain peptides; format: physicochemical
PDE1B_82–501 = test: Calcium/calmodulin activation of PDE1B_82–501 (SPA); format: biochemical, human; details: 50 nM calmodulin and 50 µM CaCl2; deletion of 35 amino acids from C-terminal
Description: as §1, with “Alignments were generated using Geneious Prime (v 2024.0.7). Amino acids are colored according to the RasMol color scheme, and similarities are indicated according to the BLOSUM substitution matrix.” left out
as §2

Effect of calcium/calmodulin activation on roflumilast IC50 towards chimera (in words) ([1]; 3-4 independent experiments): unaffected by
Molecule: O=C(Nc1c(Cl)cncc1Cl)c1ccc(OC(F)F)c(OCC2CC2)c1 [roflumilast]
Roflumilast IC50 towards chimera compared with PDE4Dcata (in words) ([1]; 3-4 independent experiments, one-way ANOVA with Sidak's): not significantly different from PDE4D catalytic domain | Inhibition of PDE1/4 chimera activity (in words) [1]: could be inhibited; also recorded: inhibits the PDE1/4 chimera

Molecule: COc1ccc(C2CNC(=O)C2)cc1OC1CCCC1 (stereo not shown) [rolipram]
Inhibition of PDE1/4 chimera activity (in words) [1]: could be inhibited | Rolipram potency on PDE1/4 chimera relative to PDE4D catalytic domain (in words) [1]: inhibited the PDE1/4 chimera more potently than the PDE4D catalytic domain | Rolipram potency on PDE1/4 chimera relative to PDE4D catalytic domain (in words) ([1]; listed as Rolipram): inhibits the PDE1/4 chimera more potently than the PDE4D catalytic domain alone | Rolipram affinity/potency boost on calcium/calmodulin-activated PDE1/4 chimera (in words) [1]: affinity boost was lost when the chimera was activated by calcium/calmodulin | Rolipram affinity/potency boost on calcium/calmodulin-activated PDE1/4 chimera (in words) ([1]; listed as Rolipram): increased potency is lost upon activation of the chimera by calcium/calmodulin | Rolipram affinity for UCR2-containing isoforms compared to the catalytic domain alone (in words) ([2]; compared to the catalytic domain alone): higher affinity | Rolipram potency towards PDE4 isoforms containing regulatory domains (in words) ([2]; selective PDE4 inhibitor): higher potency towards PDE4 isoforms containing regulatory domains

IC50 [3]: 17.9 ± 2.1 µM | Solubility (in words) [4]: more soluble variant
Molecule: SDEVPSEVRDWLASTFTRQ [PEP1-sol]

Molecule: calmodulin
Calmodulin regulation of PDE1B_82–501 (in words) (PDE1B_82–501): no impact on calmodulin regulation of activity
